Molecular target: T1, p53 Y220C (Homo sapiens, UniProt P04637, Y220C)
T1 construct: The recombinant protein was a truncation mutant containing only amino acids 94-312 of p53; made in house; host or cells: E. coli
Assay: In vitro DNA binding activity assay (HTRF / TR-FRET): stabilization of p53 Y220C and increase of its DNA binding activity
Assay type: biochemical
Details: recombinant His-tagged p53 Y220C DNA binding domain (aa 94-312), biotin-labeled consensus DNA, incubated at 27° C. or 29° C. for 60 min
Procedure, shortened: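 Compound effect on DNA binding of recombinant His-p53 Y220C (E. coli) to biotin-labeled consensus DNA, expressed as SC150, the concentration giving 50% increase versus untreated. Serial 3-fold DMSO dilutions of 4.5 mM stocks; room-temperature steps of 15 then 20 min.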

T1 sequence (P04637 94-312, change not shown): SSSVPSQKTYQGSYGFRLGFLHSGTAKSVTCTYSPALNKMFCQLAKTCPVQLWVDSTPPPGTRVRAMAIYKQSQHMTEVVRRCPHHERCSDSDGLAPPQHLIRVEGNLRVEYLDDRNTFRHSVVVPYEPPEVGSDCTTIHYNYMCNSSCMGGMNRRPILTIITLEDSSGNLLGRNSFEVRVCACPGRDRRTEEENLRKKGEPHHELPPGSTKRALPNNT

SC150 (concentration of the compound required to increase the DNA binding activity by 50%), + (+ = 0 μM ≤ SC150 < 0.05 μM):
COc1cc(C(N)=O)ccc1NCC#Cc1cc2c(N[C@H]3CCN(C)C[C@H]3F)cccc2n1CC(F)(F)F [Compound 801A, 4-{[3-(4-{[(3R,4S)-3-fluoro-1-methylpiperidin-4-yl]amino}-1-(2,2,2-trifluoroethyl)-1H-indol-2-yl)prop-2-yn-1-yl]amino}-3-methoxybenzamide]
COc1cc(S(C)(=O)=O)ccc1NCC#Cc1cc2c(N[C@@H]3CCN(C(C)C)C[C@@H]3F)cccc2n1CC(F)(F)F [Compound 802A]
COc1cc(S(C)(=O)=O)ccc1NCC#Cc1cc2c(N[C@H]3CCN(C(C)C)C[C@H]3F)cccc2n1CC(F)(F)F [Compound 803A]
CNC(=O)c1ccc(NCC#Cc2cc3c(N[C@@H]4CCN(C)C[C@@H]4F)cccc3n2CC(F)(F)F)c(OC)c1 [Compound 804A, 4-{[3-(4-{[(3S,4R)-3-fluoro-1-methylpiperidin-4-yl]amino}-1-(2,2,2-trifluoroethyl)-1H-indol-2-yl)prop-2-yn-1-yl]amino}-3-methoxy-N-methylbenzamide]
CNC(=O)c1ccc(NCC#Cc2cc3c(N[C@H]4CCN(C)C[C@H]4F)cccc3n2CC(F)(F)F)c(OC)c1 [Compound 805A, 4-{[3-(4-{[(3R,4S)-3-fluoro-1-methylpiperidin-4-yl]amino}-1-(2,2,2-trifluoroethyl)-1H-indol-2-yl)prop-2-yn-1-yl]amino}-3-methoxy-N-methylbenzamide]
COc1cc(C(=O)NC(C)C)ccc1NCC#Cc1cc2c(N[C@@H]3CCN(C)C[C@@H]3F)cccc2n1CC(F)(F)F [Compound 808A, 4-{[3-(4-{[(3S,4R)-3-fluoro-1-methylpiperidin-4-yl]amino}-1-(2,2,2-trifluoroethyl)-1H-indol-2-yl)prop-2-yn-1-yl]amino}-3-methoxy-N-(propan-2-yl)benzamide]
COc1cc(C(=O)O)ccc1NCC#Cc1cc2c(N[C@@H]3CCN(C(C)C)C[C@@H]3F)cccc2n1CC(F)(F)F [Compound 809A, 4-{[3-(4-{[(3S,4R)-3-fluoro-1-(propan-2-yl)piperidin-4-yl]amino}-1-(2,2,2-trifluoroethyl)-1H-indol-2-yl)prop-2-yn-1-yl]amino}-3-methoxybenzoic acid]
COc1cc(C(=O)O)ccc1NCC#Cc1cc2c(N[C@H]3CCN(C(C)C)C[C@H]3F)cccc2n1CC(F)(F)F [Compound 810A, 4-{[3-(4-{[(3R,4S)-3-fluoro-1-(propan-2-yl)piperidin-4-yl]amino}-1-(2,2,2-trifluoroethyl)-1H-indol-2-yl)prop-2-yn-1-yl]amino}-3-methoxybenzoic acid]
CCN1CC[C@@H](Nc2cccc3c2cc(C#CCNc2ccc(S(C)(=O)=O)cc2OC)n3CC(F)(F)F)[C@@H](F)C1 [Compound 812A]
CCN1CC[C@H](Nc2cccc3c2cc(C#CCNc2ccc(S(C)(=O)=O)cc2OC)n3CC(F)(F)F)[C@H](F)C1 [Compound 813A]
CCOC(=O)c1ccc(NCC#Cc2cc3c(N[C@@H]4CCN(C(C)C)C[C@@H]4F)cccc3n2CC(F)(F)F)c(OC)c1 [Compound 821A]
CCOC(=O)c1ccc(NCC#Cc2cc3c(N[C@@H]4CCN(CC)C[C@@H]4F)cccc3n2CC(F)(F)F)c(OC)c1 [Compound 823A]
CCOC(=O)c1ccc(NCC#Cc2cc3c(N[C@H]4CCN(CC)C[C@H]4F)cccc3n2CC(F)(F)F)c(OC)c1 [Compound 824A]
CCOC(=O)c1ccc(NCC#Cc2cc3c(N[C@H]4CCN(C(C)C)C[C@H]4F)cccc3n2CC(F)(F)F)c(OC)c1 [Compound 825A]
CNC(=O)c1cc(OC)c(NCC#Cc2cc3c(N[C@@H]4CCN(C)C[C@@H]4F)cccc3n2CC(F)(F)F)cc1F [Compound 826A, 2-fluoro-4-{[3-(4-{[(3S,4R)-3-fluoro-1-methylpiperidin-4-yl]amino}-1-(2,2,2-trifluoroethyl)-1H-indol-2-yl)prop-2-yn-1-yl]amino}-5-methoxy-N-methylbenzamide]
CNC(=O)c1cc(OC)c(NCC#Cc2cc3c(N[C@H]4CCN(C)C[C@H]4F)cccc3n2CC(F)(F)F)cc1F [Compound 827A, 2-fluoro-4-{[3-(4-{[(3R,4S)-3-fluoro-1-methylpiperidin-4-yl]amino}-1-(2,2,2-trifluoroethyl)-1H-indol-2-yl)prop-2-yn-1-yl]amino}-5-methoxy-N-methylbenzamide]
CCN1CC[C@H](Nc2cccc3c2cc(C#CCNc2ccc(C(=O)O)cc2OC)n3CC(F)(F)F)[C@H](F)C1 [Compound 828A, 4-{[3-(4-{[(3R,4S)-1-ethyl-3-fluoropiperidin-4-yl]amino}-1-(2,2,2-trifluoroethyl)-1H-indol-2-yl)prop-2-yn-1-yl]amino}-3-methoxybenzoic acid]
CCN1CC[C@@H](Nc2cccc3c2cc(C#CCNc2ccc(C(=O)O)cc2OC)n3CC(F)(F)F)[C@@H](F)C1 [Compound 829A, 4-{[3-(4-{[(3S,4R)-1-ethyl-3-fluoropiperidin-4-yl]amino}-1-(2,2,2-trifluoroethyl)-1H-indol-2-yl)prop-2-yn-1-yl]amino}-3-methoxybenzoic acid]
CN1CC[C@@H](Nc2cccc3c2cc(C#CCNc2ccc(S(C)(=O)=O)cc2O)n3CC(F)(F)F)[C@@H](F)C1 [Compound 834A, 2-{[3-(4-{[(3S,4R)-3-fluoro-1-methylpiperidin-4-yl]amino}-1-(2,2,2-trifluoroethyl)-1H-indol-2-yl)prop-2-yn-1-yl]amino}-5-methanesulfonylphenol]
CN1CC[C@H](Nc2cccc3c2cc(C#CCNc2ccc(S(C)(=O)=O)cc2O)n3CC(F)(F)F)[C@H](F)C1 [Compound 835A, 2-{[3-(4-{[(3R,4S)-3-fluoro-1-methylpiperidin-4-yl]amino}-1-(2,2,2-trifluoroethyl)-H-indol-2-yl)prop-2-yn-1-yl]amino}-5-methanesulfonylphenol]
COc1cc(S(=O)(=O)NC(C)=O)ccc1NCC#Cc1cc2c(N[C@@H]3CCN(C)C[C@@H]3F)cccc2n1CC(F)(F)F [Compound 837A, N-(4-{[3-(4-{[(3S,4R)-3-fluoro-1-methylpiperidin-4-yl]amino}-1-(2,2,2-trifluoroethyl)-1H-indol-2-yl)prop-2-yn-1-yl]amino}-3-methoxybenzenesulfonyl)acetamide]
COc1cc(S(=O)(=O)NC(C)=O)ccc1NCC#Cc1cc2c(N[C@H]3CCN(C)C[C@H]3F)cccc2n1CC(F)(F)F [Compound 838A, N-(4-{[3-(4-{[(3R,4S)-3-fluoro-1-methylpiperidin-4-yl]amino}-1-(2,2,2-trifluoroethyl)-1H-indol-2-yl)prop-2-yn-1-yl]amino}-3-methoxybenzenesulfonyl)acetamide]
CCOC(=O)c1ccc(NCC#Cc2cc3c(N[C@@H]4CCN(C)C[C@@H]4F)cccc3n2CC(F)(F)F)c(OC)c1 [Compound 839A, Ethyl 4-((3-(4-(((3S,4R)-3-fluoro-1-methylpiperidin-4-yl)amino)-1-(2,2,2-trifluoroethyl)-1H-indol-2-yl)prop-2-yn-1-yl)amino)-3-methoxybenzoate]
CCOC(=O)c1ccc(NCC#Cc2cc3c(N[C@H]4CCN(C)C[C@H]4F)cccc3n2CC(F)(F)F)c(OC)c1 [Compound 840A, ethyl 4-((3-(4-(((3R,4S)-3-fluoro-1-methylpiperidin-4-yl)amino)-1-(2,2,2-trifluoroethyl)-1H-indol-2-yl)prop-2-yn-1-yl)amino)-3-methoxybenzoate]
CN1CC[C@H](Nc2cccc3c2cc(C#CCNc2ccc(S(C)(=O)=O)cc2OCF)n3CC(F)(F)F)[C@H](F)C1 [Compound 841A]
CN1CC[C@@H](Nc2cccc3c2cc(C#CCNc2ccc(S(C)(=O)=O)cc2OCF)n3CC(F)(F)F)[C@@H](F)C1 [Compound 842A]
CCOc1cc(S(C)(=O)=O)ccc1NCC#Cc1cc2c(N[C@@H]3CCN(C)C[C@@H]3F)cccc2n1CC(F)(F)F [Compound 843A]

Source: patent US12428406B2 (PMV Pharmaceuticals, Inc., priority 2019, dated 2025)
